# Experimental data: US20070259087A1, “Antimicrobial Peptides” (Novozymes A/S, priority 2003, published 2007)
# Read-outs that look alike come from different tables or passages of the source. Where no end group is shown, it is not given here.
# Experiments:
# E. coli TOP10 = assay type: cell-based
# Description: A range of synthetic antimicrobial polypeptides were expressed in E. coli TOP10 (Invitrogen) using arabinose as inducer, as disclosed in Example 1 of International patent application WO 00/73433 (with minor modifications). […] Briefly, fresh overnight cultures grown in RM medium containing 0.2% glucose and ampicillin (100 μg/ml) were diluted 300-fold into 150 microliter of RM containing 0.2% glycerol and ampicillin (100 μg/ml) and different concentrations of arabinose (0, 0.01% or 0.1%) in a microtiter plate and incubated at 37 degrees Celsius with vigorous shaking. The growth curve was monitored by measuring OD450 using a Bioscreen C Microbiology reader (Thermo Electron Corporation) at intervals of 30 minutes for 14 hours (see Invitrogen protocol of the pBAD/gill A, B and C vectors catalogue nos. V450-01 for buffer and media composition). The percentage of growth inhibition was calculated as the end point OD measurement of each sample divided by the end point OD measurement obtained from cells containing the control vector and multiplied by 100. The formula is the following: [formula] where “blank OD” corresponds to the OD of an empty well.
# [1] = system: Pseudomonas aeroginosa (ATCC 27853)
# Description: The selected test organism was Pseudomonas aeroginosa (ATCC 27853).
# Bacillus subtilis = assay: Antimicrobial activity by radial diffusion assay (MEC); assay type: cell-based
# Description: (§1) A modified version of a previously published protocol has been applied in the detection of antimicrobial activity (Lehrer et al., (1991) Ultra sensitive assays for endogenous antimicrobial polypeptides J Immunol Methods 137: 167-173). Target bacteria (10^6 colony forming units (CFU)) were added to 10 ml of underlay agarose (1% low electro-endosmosis agarose, 0.03% Trypticase soy broth, 10 mM sodium phosphate, pH 7.4, 37 degrees Celsius). Suspension was solidified on an INTEGRID Petri Dish (Becton Dickinson Labware). A 3 mm Gel Puncher was used to make holes in the underlay agarose (Amersham Pharmacia Biotech, Sweden). Samples were added to the holes and incubated at 37 degrees Celsius, 3 hours. An overlay was poured on top and the plate was incubated overnight (LB media, 7.5% Agar). Antimicrobial activity was seen as bacterial clearing zones around the wells. Living cells was counterstained by adding 10 ml, 0.2 mM MTT (3-(4,5-Dimethylthiazol-2-yl)-2,5-diphenyltetrazolium bromide Thiazolyl blue).
# Eschericia coli = assay: as above; assay type: cell-based
# Description: as §1
# [2] = system: Pseudomonas aeroginosa (ATCC 27853); assay: Killing kinetics in MHB (viable cells, CFU/ml); assay type: cell-based; conditions: 4×MIC concentration
# Description: The rate of killing of Gen2 was determined in MHB using Pseudomonas aeroginosa (ATCC 27853) as the test organism. The bacteria were incubated with Gen2 (at 4×MIC concentration). At different time-points, several dilutions of the preparation were plated and an estimate of viable cells was determined (CFU/ml). The results in Table 2 indicate that Gen2 rapidly kills the bacteria, with a near 3-log reduction in CFU within 30 minutes.
# [3] = 0.01% arabinose, end point OD450 after 14 hours, 37 degrees Celsius
# [4] = 0.1% arabinose, end point OD450 after 14 hours, 37 degrees Celsius
Sequence,Growth inhibition using 0.01% arabinose (%) (E. coli TOP10; [3]),Growth inhibition using 0.1% arabinose (%) (E. coli TOP10; [4]),also measured
GLLRKLGKKIKRVVKHVG (Synthetic antimicrobial peptide) [SEQ ID NO:10],98%,100%,–
GLLRKLRKEVKKVLSIFFRWL (Synthetic antimicrobial peptide) [SEQ ID NO:39],97%,99%,–
GLLSILKRKSKRILKHIL (Synthetic antimicrobial peptide) [SEQ ID NO:24],88%,96%,–
GLLSKIMKAVKRTLKHIL (Synthetic antimicrobial peptide) [SEQ ID NO:16],89%,99%,–
GLLSKIRKKLKRVLQSIR (Synthetic antimicrobial peptide) [SEQ ID NO:20],77%,94%,–
GLLSKLGKAVKNILEDVV (Synthetic antimicrobial peptide) [SEQ ID NO:28],98%,100%,–
"GLLSKLKKAAKKALKHVL [Gen2, GLLSKLKKAAKKALKHVL]",–,–,"MIC ([1]; ATCC 27853): 15 µg/mL; MIC ([1]; ATCC 27853, pH 5.5): 16 µg/mL; MIC ([1]; ATCC 27853, pH 6.5): 16 µg/mL; antimicrobial activity (MEC) (Bacillus subtilis): < 64 µg/mL; antimicrobial activity (MEC) (Eschericia coli): < 64 µg/mL; viable cells ([2]; 0 hours): 100.000 CFU/ml; viable cells ([2]; 0.5 hours): 115 CFU/ml; viable cells ([2]; 1.5 hours): 60 CFU/ml; viable cells ([2]; 24 hours): <20 CFU/ml; reduction in CFU ([2]; within 30 minutes): ~3 log; Growth inhibition using 0.01% arabinose (%) (E. coli TOP10; TOP10, 14 h): 51%; Growth inhibition using 0.1% arabinose (%) (E. coli TOP10; TOP10, 14 h): 48%"
GLLSKLKKTVKRVVKHVR (Synthetic antimicrobial peptide) [SEQ ID NO:19],84%,99%,–
GLLSKLKRKIKKAVKHIL (Synthetic antimicrobial peptide) [SEQ ID NO:30],82%,95%,–
GLLSMLGKAVKRAVQHVL (Synthetic antimicrobial peptide) [SEQ ID NO:26],97%,100%,–
GLLSRLRRATKIILKGIR (Synthetic antimicrobial peptide) [SEQ ID NO:14],72%,88%,–
GLVTLLKKAMKNALEDVL (Synthetic antimicrobial peptide) [SEQ ID NO:21],98%,99%,–
GLWNMLKKKLKKIAQGIR (Synthetic antimicrobial peptide) [SEQ ID NO:15],73%,88%,–
GLWRKLKKALKRAVQGVR (Synthetic antimicrobial peptide) [SEQ ID NO:5],91%,96%,–
GLWRKLRRKAKKVLQHIL (Synthetic antimicrobial peptide) [SEQ ID NO:13],94%,100%,–
GLWSSIKKEAKHALKHIL (Synthetic antimicrobial peptide) [SEQ ID NO:29],55%,81%,–
GMLIKLEMEAKKVVKNVL (Synthetic antimicrobial peptide) [SEQ ID NO:17],96%,99%,–
GMLKKLKKKTKRAFSVFCRWL (Synthetic antimicrobial peptide) [SEQ ID NO:44],96%,98%,–
GMLRKLKRKVKRTLQHVL (Synthetic antimicrobial peptide) [SEQ ID NO:8],78%,88%,–
GMLSKLGITIKIAVKHIR (Synthetic antimicrobial peptide) [SEQ ID NO:6],98%,100%,–
GWFNKLKTKIKKTLKHVL (Synthetic antimicrobial peptide) [SEQ ID NO:11],72%,90%,–
GWFSKLKKTAKKLLQRVL (Synthetic antimicrobial peptide) [SEQ ID NO:7],76%,82%,–
GWLKILEKAAKITVKNVL (Synthetic antimicrobial peptide) [SEQ ID NO:36],98%,97%,–
GWLRKIGKAVKKVVKRVL (Synthetic antimicrobial peptide) [SEQ ID NO:34],90%,99%,–
